System: NCIES0808 cells
Experiment: Two-dimensional gel analysis with MS identification
Type: cell-based, human
Details: − = down, 1 = no change; for Spot 154, Translin-associated factor X: modulation vs control media / Spot 240, Proteasome 26S subunit 13; Endophilin B1: modulation vs control media / Spot 284, Proteasome 26S subunit: modulation vs control media / Spot 583, hnRNP C1/C2: modulation vs control media / Spot 612, Myosin Regulatory Light Chain: modulation vs control media / Spot 667, Dismutase Cu/Zn Superoxide: modulation vs control media / Spot 685, hnRNP C1/C2: modulation vs control media / Spot 746, Actin-like 6A; Eukaryotic Initiation Factor 4All: modulation vs control media / Spot 938, Nuclear Chloride Channel protein: modulation vs control media / Spot 940, Ubiquilin 1; Phosphatase 2A: modulation vs control media: 3 hours; for Spot 452, acid phosphatase 1: modulation vs control media / Spot 477, diazepam binding inhibitor: modulation vs control media / Spot 530, ribosomal protein SA: modulation vs control media / Spot 652, proteasome beta 3: modulation vs control media / Spot 720, dCTP pyrophosphatase 1: modulation vs control media / Spot 773, proteasome beta 4: modulation vs control media / Spot 1057, Arsenite translocating ATPase; Spermine synthetase: modulation vs control media: 6 hours
Experimental: NCIES0808 cells were plated in T25 flasks in experimental conditions similar to those described in the PCR array section. At the end of the treatment time, cells were trypsinized as described in the PCR array section and washed twice in ice cold TBS and snap frozen in liquid nitrogen. Further processing for Western blots was carried out at UMass.
Before isoelectric focusing (IEF), samples were solubilized in 40 mM Tris, 7 M urea, 2 M thiourea, and 1% C7 zwitterionic detergent, reduced with tributylphosphine, and alkylated with 10 mM acrylamide for 90 min at room temperature. After the sample was run through a 10-kDa cutoff Amicon Ultra device with at least 3 volumes of the resuspension buffer, consisting of 7 M urea, 2 M thiourea, and 2% CHAPS to reduce the conductivity of the sample. One hundred micrograms of protein were subjected to IEF on 11-cm pH 3 to 10, pH 4 to 7 or pH 6 to 11 immobilized pH gradient strips (GE, Amersham, USA) to 100,000 volts hour. After IEF, immobilized pH gradient strips were equilibrated in 6 M urea, 2% SDS, 50 mM Tris-acetate buffer, pH 7.0, and 0.01% bromphenol blue and subjected to SDS-polyacrylamide gel electrophoresis on 8 to 16% Tris-HCl Precast Gel, 1 mm (Bio-Rad, USA). The gels were run in duplicate. They were fixed, stained in SYPRO Ruby, 80 mL/gel (Invitrogen, USA) and imaged on Fuji FLA-5100 laser scanner.
Analysis of all gel images was performed using Progenesis Discovery and Pro (Nonlinear Dynamics Inc., Newcastle upon Tyne, UK). After spot detection, matching, background subtraction, normalization, and filtering, data for SYPRO Ruby gel images was exported. […] Manual annotation of each statistically significant spots was performed to assure accurate detection.
Tryptic peptides extracted from respective gel plugs were dried down to a 10 ul volume and acidified with 1-2 ul of 1% TFA. Samples were loaded on an uC18 Zip Tip (Millipore, Corp) after pre-equilibration in 0.1% TFA. After washing with 2×10 ul aliquots of 0.1% TFA, samples were deposited directly onto the MALDI sample target using 1 ul of Matrix solution 15 mg/ml of 2,5 Dihydroxybenzoic Acid (MassPrep DHB, Waters Corp.) in 50:50 Acetonitrile: 0.1% TFA. Samples were allowed to air dry prior to insertion into the mass spectrometer. Analysis were performed on a Kratos Axima QIT (Shimadzu Instruments) matrix-assisted-laser desorption/ionization (MALDI) mass spectrometer. Peptides were analyzed in positive ion mode in mid mass range (700-3000 Da). The instrument was externally calibrated with Angiotensin II (1046.54), P14R (1533.86) and ACTH (18-39) 2465.20 Da. Precursors were selected based on signal intensity at a mass resolution width of 250 for CID fragmentation using Argon as the collision gas. Database searches were performed in house with Mascot (Matrix Sciences, Ltd.) using the Peptide Mass Fingerprint program for MS data and the MS/MS Ion Search program for CID data. All identifications were confirmed or established with CID (MS/MS) data.
NCIES0808 cells treated for 3, 6 and 24 hours were subjected to 2-D gel electrophoreses and were analyzed to identify protein-level changes relative to the control media samples. A comparative analysis of spots across multiple duplicated gels was performed, comparing the “control media sample” against all of the treated samples at both the 50 uM and 100 uM doses. The analysis included the identification of spot changes over the time course due to an increase, decrease, or post-translational modification.

Substance: Coenzyme Q10 [CoQ10]
- Spot 154, Translin-associated factor X: modulation vs control media (50 uM Q10): 1
- Spot 240, Proteasome 26S subunit 13; Endophilin B1: modulation vs control media (50 uM Q10): −1.3
- Spot 284, Proteasome 26S subunit: modulation vs control media (50 uM Q10): −1.1
- Spot 583, hnRNP C1/C2: modulation vs control media (50 uM Q10): 1.4
- Spot 612, Myosin Regulatory Light Chain: modulation vs control media (50 uM Q10): 1.4
- Spot 667, Dismutase Cu/Zn Superoxide: modulation vs control media (50 uM Q10): −1.1
- Spot 685, hnRNP C1/C2: modulation vs control media (50 uM Q10): 1.2
- Spot 746, Actin-like 6A; Eukaryotic Initiation Factor 4All: modulation vs control media (50 uM Q10): −1.3
- Spot 938, Nuclear Chloride Channel protein: modulation vs control media (50 uM Q10): −1.2
- Spot 940, Ubiquilin 1; Phosphatase 2A: modulation vs control media (50 uM Q10): 1
- Spot 154, Translin-associated factor X: modulation vs control media (100 uM Q10): −1.9
- Spot 240, Proteasome 26S subunit 13; Endophilin B1: modulation vs control media (100 uM Q10): 1.5
- Spot 284, Proteasome 26S subunit: modulation vs control media (100 uM Q10): −1.6
- Spot 583, hnRNP C1/C2: modulation vs control media (100 uM Q10): 1.5
- Spot 612, Myosin Regulatory Light Chain: modulation vs control media (100 uM Q10): 1.4
- Spot 667, Dismutase Cu/Zn Superoxide: modulation vs control media (100 uM Q10): −1.4
- Spot 685, hnRNP C1/C2: modulation vs control media (100 uM Q10): 1.2
- Spot 746, Actin-like 6A; Eukaryotic Initiation Factor 4All: modulation vs control media (100 uM Q10): −1.2
- Spot 938, Nuclear Chloride Channel protein: modulation vs control media (100 uM Q10): −1.2
- Spot 940, Ubiquilin 1; Phosphatase 2A: modulation vs control media (100 uM Q10): 1.3
- Spot 452, acid phosphatase 1: modulation vs control media (50 uM Q10): −1.3
- Spot 477, diazepam binding inhibitor: modulation vs control media (50 uM Q10): −1.4
- Spot 530, ribosomal protein SA: modulation vs control media (50 uM Q10): −1.2
- Spot 652, proteasome beta 3: modulation vs control media (50 uM Q10): −1.1
- Spot 720, dCTP pyrophosphatase 1: modulation vs control media (50 uM Q10): −1.2
- Spot 773, proteasome beta 4: modulation vs control media (50 uM Q10): −1.1
- Spot 1057, Arsenite translocating ATPase; Spermine synthetase: modulation vs control media (50 uM Q10): −1.1
- Spot 452, acid phosphatase 1: modulation vs control media (100 uM Q10): −1.5
- Spot 477, diazepam binding inhibitor: modulation vs control media (100 uM Q10): −1.2
- Spot 530, ribosomal protein SA: modulation vs control media (100 uM Q10): −1.4
- Spot 652, proteasome beta 3: modulation vs control media (100 uM Q10): −1.3
- Spot 720, dCTP pyrophosphatase 1: modulation vs control media (100 uM Q10): −1.2
- Spot 773, proteasome beta 4: modulation vs control media (100 uM Q10): −1.2
- Spot 1057, Arsenite translocating ATPase; Spermine synthetase: modulation vs control media (100 uM Q10): −1.2
- Spot 16, alpha 2-HS glycoprotein (Bos Taurus, cow): modulation vs control media (24 hours, 50 uM Q10): 1.4
- Spot 130, ribosomal proten P2; histone H2A: modulation vs control media (24 hours, 50 uM Q10): −1.3
- Spot 180, beta actin: modulation vs control media (24 hours, 50 uM Q10): 1.3
- Spot 234, hnRNP C1/C2: modulation vs control media (24 hours, 50 uM Q10): −1.2
- Spot 244, heat shock protein 70 kD: modulation vs control media (24 hours, 50 uM Q10): 1.1
- Spot 275, microtubule associated protein: modulation vs control media (24 hours, 50 uM Q10): 1.1
- Spot 311, beta tubulin: modulation vs control media (24 hours, 50 uM Q10): 1.7
- Spot 314, proteasome alpha 3: modulation vs control media (24 hours, 50 uM Q10): 1.1
- Spot 363, ATP dependent helicase II: modulation vs control media (24 hours, 50 uM Q10): 1.2
- Spot 369, eukaryotic translation elongation factor 1 delta: modulation vs control media (24 hours, 50 uM Q10): 1.1

From patent publication US20130266557A1, “METHODS FOR TREATMENT OF A SARCOMA USING AN EPIMETABOLIC SHIFTER (COENZYME Q10)” (priority 2009, published 2013)
